Results as given in ChEMBL document CHEMBL1126379, “Pyrrole analogues of the pyrrolidinone moiety of the potassium channel activator cromakalim as relaxants of guinea pig trachealis” (Bioorg Med Chem Lett, 1992).

Assays:
Cavia porcellus [1] = species: Cavia porcellus; assay: Relaxant activity expressed as in vitro inhibition of tone in guinea pig trachealis; assay type: functional
Cavia porcellus [2] = species: Cavia porcellus; assay: Inhibition of tone in guinea pig trachealis; assay type: functional

Row | Compound | IC50 (Cavia porcellus [1]) [µM] | Intrinsic activity (Cavia porcellus [2])
1 | CC1(C)C=C(n2ccc(C#N)c2)c2cc(C#N)ccc2O1 | 2.4 | 0.89
2 | CC1OC2=C(c3cc(C#N)ccc3OC2(C)C)n2cccc21 (stereo not drawn) | 1.37 | 0.8
3 | CC1(C)C=C(n2ccc([N+](=O)[O-])c2)c2cc(C#N)ccc2O1 | 1.02 | 0.79
4 | CC(=O)c1cccn1C1=CC(C)(C)Oc2ccc(C#N)cc21 | > 20 | 0.22
5 | CC1(C)Oc2ccc(C#N)cc2[C@@H](n2cccc2[N+](=O)[O-])[C@@H]1O | 0.37 | 0.88
6 | CCc1cccn1C1=CC(C)(C)Oc2ccc(C#N)cc21 | > 20 | 0.32
7 | CC1(C)C=C(n2cccc2)c2cc(C#N)ccc2O1 | 4.08 | 0.78
8 | CC1(C)Oc2ccc(C#N)cc2[C@H]2n3cccc3[C@@H](C(F)(F)F)O[C@]21O | 0.08 | 0.96
9 | CC(=O)N[C@@H]1c2cc(C#N)ccc2OC(C)(C)[C@H]1O | 2.9 | 0.78
10 | CC1(C)Oc2ccc(C#N)cc2C2=C1OC(c1ccccc1)c1cccn12 (stereo not drawn) | > 2 | 0.21
11 | CC1(C)Oc2ccc(C#N)cc2[C@@H](n2cccc2C(=O)C(F)(F)F)[C@@H]1O | > 20 | 0.28
12 | CC1(C)C=C(n2cccc2C(=O)C(F)(F)F)c2cc(C#N)ccc2O1 | 0.69 | 0.91
13 | CC1(C)C=C(n2cccc2[N+](=O)[O-])c2cc(C#N)ccc2O1 | 0.69 | 0.88
14 | CC1(C)Oc2ccc(C#N)cc2[C@@H](n2cccc2)[C@@H]1O | > 20 | 0.19
15 | C/C(=C\C#N)N[C@@H]1c2cc(C#N)ccc2OC(C)(C)[C@H]1O | 1.23 | 0.96
16 | CC1(C)Oc2ccc(C#N)cc2[C@H]2n3cccc3CO[C@]21O | 10.4 | 0.85
17 | CC1(C)Oc2ccc(C#N)cc2[C@@H](N2CCCC2=O)[C@@H]1O [CROMAKALIM] |  | 0.89
